Reference: PMC12257394, “Design, Synthesis, and Biological Evaluation of Ferrocenyl–Cyclo-(Gly‑L‑Pro) Hybrids Sensitizing Multidrug-Resistant Cancer Cells to Anticancer Agents” (ACS Medicinal Chemistry Letters, 2025)
Values belong to the compound of their own block, whether it stands above or below them.

Experiments:
Assay type in all cases: cell-based, human
SW620D cells = experiment: Synergy determination (Bliss model, SynergyFinder), SW620D; settings: drug doxorubicin + additive; for synergy score: Bliss model
Description: (§1) In an ideal setting, the effect of cell exposure to a combination of a chemotherapeutic and an MDR inhibitor should be synergistic. […] The highest synergy scores identified an optimal concentration range where the combination exerted its maximal effect. […] In cisplatin-resistant SW620C cells, the low or lack of synergy observed for most compounds may be due to the additive effects of cisplatin and 4 rather than a true synergistic interaction. […]
(§2) To evaluate the potential interactions between putative ABC inhibitors and anticancer drugs, we utilized the Bliss independence model, as implemented in the SynergyFinder web application.13, 14 Synergy scores and the most synergistic area scores were calculated based on the normalized dose–response matrices. A synergy score below −10 indicates likely […]
(§3) above 10 is indicative of likely synergistic interactions.
(§4) All experiments were performed at least three times, and the data were statistically analyzed

[1] = test system: ABCB1-overexpressing SW620E cells; experiment: MDR reversal assay (ERP), SW620E; settings: for ERP value, etoposide + compound: SW620E (xlsx); for ERP = IC50(drug)MDR/IC50(drug+4)MDR: etoposide, SW620E
Description: (§5) We investigated the potency of 4a–e to inhibit ABC transporters (ABCB1, ABCC1, and ABCG2) by determining their enhancement of reversal potency (ERP) values. ERP represents fold changes in the IC50 values of anticancer drugs in multidrug-resistant cancer sublines (ABCB1-overexpressing SW620D, SW620E, and SW620V; ABCC1-overexpressing SW620M; ABCG2-overexpressing SW620C and SW620Mito) exposed to a combination of the investigated compounds and anticancer agents at equimolar concentrations, compared with values obtained with drugs alone (Tables S2 and S3 and Figure ).
(§6) Standards. Multidrug-resistant variants of SW620 cells were developed in our laboratory as described previously.10, 11 All cells were cultured under standard conditions (37°C, 5% CO2, 100% humidity) in high-glucose DMEM supplemented with GlutaMaxTM, HEPES (ThermoFisher Scientific, USA), and 10% fetal bovine serum (EURx, Poland). Cells were routinely tested for potential Mycoplasma contamination using the MycoProbe Mycoplasma Detection kit (R&D System, USA).
(§7) In total, 104 cells in 100 µL of complete medium were plated per well of a 96-well plate and left overnight to allow cells to adhere to the surface. Then, the cells were exposed to a desired concentration of tested compound(s). Stock solutions were prepared in DMSO and used immediately. The final DMSO concentration was constant and nontoxic (0.1% v/v). After 70-h incubation, neutral red was added to the final concentration of 1 mM. After another 2 h, the medium was aspirated, and cells were washed twice with PBS. Dye was released using 100 µL of a solubilizer (1% acetic acid in 50% ethanol) on an orbital shaker (10 min). Absorbance was read at 540 nm using EnVision Multilabel Plate Reader (Perkin Elmer, USA). Results were expressed as % of control. The IC50 parameters were calculated using GraphPad Prism version 10 (GraphPad Software, Boston, Massachusetts USA).
(§8) The enhancement of reversal potency (ERP) value determination
(§9) For MDR reversal assays, cytotoxic agents were co-administered with compounds 4a–4e at equimolar concentrations in a range of 10 nM to 100 µM. IC₅₀ values were determined in ABCB1-overexpressing SW620 cell line variants. The enhancement of reversal potency (ERP) was calculated using the following formula: ERP = IC₅₀(drug)MDR / IC₅₀(drug + compound)MDR. All experiments were performed in triplicate (n = 3).

[2] = test system: SW620Mito cells (mitoxantrone-resistant); experiment: Neutral red uptake viability assay, SW620Mito; settings: 72 h; for survival rate: n = 3, ± SD; for IC50: n = 3, read-out: Cytotoxic activity IC50 (95% CI)
Protocol: (§10) In general, compounds 4a–e exerted little or no cytotoxic effect on either SW620 or multidrug-resistant sublines even at 10 μM, with the remarkable exception of SW620C (cisplatin-selected variant of SW620) cells, which turned out to be relatively susceptible toward ferrocenyl 4a–c. […] This trend may reflect steric or electronic contributions to cellular uptake or interaction with intracellular targets. […] However, since E/Z isomeric data are currently available only for compound 4c, this hypothesis requires validation. To quantify this effect, IC50 values were determined (Table ). […]
(§11) The normal lung fibroblast MRC-5 and colorectal adenocarcinoma SW620 cell lines used in this experiment were purchased from American Type Culture Collection (USA) via LGC […]
as §6
as §7, with “Massachusetts USA). […]” for “Massachusetts USA).”
(§12) All experiments were performed in triplicate (n = 3).

[3] = test system: ABCG2-overexpressing SW620Mito cells; experiment: MDR reversal assay (ERP), SW620Mito; settings: for ERP value, mitoxantrone + compound: SW620Mito (xlsx); for ERP = IC50(drug)MDR/IC50(drug+4)MDR: mitoxantrone, SW620Mito
Description: as §5, §6, §7, §8, §9

[4] = test system: ABCC1-overexpressing SW620M cells; experiment: MDR reversal assay (ERP), SW620M; settings: for ERP value, methotrexate + compound: SW620M (xlsx); for ERP = IC50(drug)MDR/IC50(drug+4)MDR: methotrexate, SW620M
Description: as §5, §6, §7, §8, §9

SW620C cells = experiment: Synergy determination (Bliss model, SynergyFinder), SW620C; settings: drug cisplatin + additive; for synergy score: Bliss model
Description: as §1, §2, §3, §4

[5] = test system: ABCG2-overexpressing SW620C cells; experiment: MDR reversal assay (ERP), SW620C; settings: for ERP value, cisplatin + compound: SW620C (xlsx); for ERP = IC50(drug)MDR/IC50(drug+4)MDR: cisplatin, SW620C
Description: as §5, §6, §7, §8, §9

MRC-5 fibroblasts = experiment: Neutral red uptake viability assay, MRC-5; settings: for survival rate: MRC-5, 10 μM, 72 h exposure, n = 3, ± SD; for Surviwal rate of MRC-5 at 10 microM: MRC-5, 10 microM (xlsx)
Protocol: as §11, §6
as §7, with “Massachusetts USA). […]” for “Massachusetts USA).”
as §12

[6] = test system: SW620M cells (methotrexate-resistant); experiment: Neutral red uptake viability assay, SW620M; settings: 72 h; for survival rate: n = 3, ± SD; for IC50: n = 3, read-out: Cytotoxic activity IC50 (95% CI)
Protocol: as §10, §11, §6
as §7, with “Massachusetts USA). […]” for “Massachusetts USA).”
as §12

Compound: O=C1N/C(=C\c2ccccc2-[c-]2cccc2)C(=O)N2CCC[C@@H]12.[Fe+2].c1cc[cH-]c1 [(S,Z)-4b]
most synergistic area score (SW620D cells): 11.62
synergy score (SW620D cells): 3.96
ERP value, etoposide + compound [1]: 2.22
ERP = IC50(drug)MDR/IC50(drug+4)MDR [1]: 2.22
survival rate ([2]; 1 μM): 85 ± 1.0%
survival rate ([2]; 10 μM): 85 ± 1.9%
IC50 [2]: 44.9 µM
ERP value, mitoxantrone + compound [3]: 9.11
ERP = IC50(drug)MDR/IC50(drug+4)MDR [3]: 9.11
ERP value, methotrexate + compound [4]: 1.84
ERP = IC50(drug)MDR/IC50(drug+4)MDR [4]: 1.84
most synergistic area score (SW620C cells): 0.00
synergy score (SW620C cells): –2.78
ERP value, cisplatin + compound [5]: 4.53
ERP = IC50(drug)MDR/IC50(drug+4)MDR [5]: 4.53
survival rate (MRC-5 fibroblasts): 92 ± 8.7%
survival rate ([6]; 1 μM): 97 ± 0.8%
survival rate ([6]; 10 μM): 96 ± 3.5%
IC50 [6]: 52.2 µM

ERP = IC50(drug)MDR/IC50(drug+4)MDR [1]: 0.88
ERP = IC50(drug)MDR/IC50(drug+4)MDR [4]: 1.08
ERP = IC50(drug)MDR/IC50(drug+4)MDR [5]: 1.98
Compound: O=C1N/C(=C/c2ccccc2)C(=O)N2CCC[C@@H]12 [(S,E)-4e]
most synergistic area score (SW620D cells): 0.00
synergy score (SW620D cells): –6.63
ERP value, etoposide + compound [1]: 0.88
survival rate ([2]; 1 μM): 94 ± 0.7%
survival rate ([2]; 10 μM): 96 ± 0.8%
ERP value, mitoxantrone + compound [3]: 0.82
ERP = IC50(drug)MDR/IC50(drug+4)MDR [3]: 0.82
ERP value, methotrexate + compound [4]: 1.08
most synergistic area score (SW620C cells): 3.89
synergy score (SW620C cells): –2.78
ERP value, cisplatin + compound [5]: 1.98
survival rate (MRC-5 fibroblasts): 117 ± 11%
Surviwal rate of MRC-5 at 10 microM (MRC-5 fibroblasts): 117_11
survival rate ([6]; 1 μM): 93 ± 0.3%
survival rate ([6]; 10 μM): 95 ± 3.4%

Compound: O=C1N/C(=C\[c-]2cccc2)C(=O)N2CCC[C@@H]12.[Fe+2].c1cc[cH-]c1 [(S,Z)-4a]
most synergistic area score (SW620D cells): 20.51
synergy score (SW620D cells): 6.30
ERP value, etoposide + compound [1]: 5.61
ERP = IC50(drug)MDR/IC50(drug+4)MDR [1]: 5.61
survival rate ([2]; 1 μM): 98 ± 2.0%
survival rate ([2]; 10 μM): 90 ± 3.1%
IC50 [2]: > 100 µM
ERP value, mitoxantrone + compound [3]: 4.61
ERP = IC50(drug)MDR/IC50(drug+4)MDR [3]: 4.61
ERP value, methotrexate + compound [4]: 1.17
ERP = IC50(drug)MDR/IC50(drug+4)MDR [4]: 1.17
most synergistic area score (SW620C cells): 4.33
synergy score (SW620C cells): –2.62
ERP value, cisplatin + compound [5]: 4.86
ERP = IC50(drug)MDR/IC50(drug+4)MDR [5]: 4.86
survival rate (MRC-5 fibroblasts): 106 ± 13%
survival rate ([6]; 1 μM): 93 ± 0.9%
survival rate ([6]; 10 μM): 98 ± 2.3%
IC50 [6]: > 100 µM

Compound: O=C1N/C(=C/c2cccc(-[c-]3cccc3)c2)C(=O)N2CCC[C@@H]12.[Fe+2].c1cc[cH-]c1 [(S,E)-4c]
most synergistic area score (SW620D cells): 1.68
synergy score (SW620D cells): –3.01
ERP value, etoposide + compound [1]: 0.87
ERP = IC50(drug)MDR/IC50(drug+4)MDR [1]: 0.87
survival rate ([2]; 1 μM): 94 ± 3.5%
survival rate ([2]; 10 μM): 94 ± 1.1%
IC50 [2]: > 100 µM
ERP value, mitoxantrone + compound [3]: 0.87
ERP = IC50(drug)MDR/IC50(drug+4)MDR [3]: 0.87
ERP value, methotrexate + compound [4]: 1.16
ERP = IC50(drug)MDR/IC50(drug+4)MDR [4]: 1.16
most synergistic area score (SW620C cells): 8.86
synergy score (SW620C cells): 0.39
ERP value, cisplatin + compound [5]: 3.45
survival rate (MRC-5 fibroblasts): 110 ± 10%
survival rate ([6]; 1 μM): 93 ± 1.8%
survival rate ([6]; 10 μM): 96 ± 4.6%
IC50 [6]: > 100 µM

Compound: O=C1N/C(=C\c2ccc(-[c-]3cccc3)cc2)C(=O)N2CCC[C@@H]12.[Fe+2].c1cc[cH-]c1 [(S,Z)-4d]
most synergistic area score (SW620D cells): 17.81
synergy score (SW620D cells): 7.37
ERP value, etoposide + compound [1]: 5.84
ERP = IC50(drug)MDR/IC50(drug+4)MDR [1]: 5.84
survival rate ([2]; 1 μM): 98 ± 0.9%
survival rate ([2]; 10 μM): 93 ± 1.1%
IC50 [2]: > 100 µM
ERP value, mitoxantrone + compound [3]: 10.3
ERP = IC50(drug)MDR/IC50(drug+4)MDR [3]: 10.3
ERP value, methotrexate + compound [4]: 0.84
ERP = IC50(drug)MDR/IC50(drug+4)MDR [4]: 0.84
most synergistic area score (SW620C cells): 13.42
ERP value, cisplatin + compound [5]: 2.58
ERP = IC50(drug)MDR/IC50(drug+4)MDR [5]: 2.58
survival rate (MRC-5 fibroblasts): 101 ± 7%
survival rate ([6]; 1 μM): 99 ± 0.8%
survival rate ([6]; 10 μM): 95 ± 1.5%
IC50 [6]: > 100 µM

ERP = IC50(drug)MDR/IC50(drug+4)MDR [1]: 0.88
ERP = IC50(drug)MDR/IC50(drug+4)MDR [4]: 1.28
ERP = IC50(drug)MDR/IC50(drug+4)MDR [5]: 0.70
Compound: O=C1N/C(=C\c2ccccc2)C(=O)N2CCC[C@@H]12 [(S,Z)-4e]
most synergistic area score (SW620D cells): 0.00
synergy score (SW620D cells): –8.70
ERP value, etoposide + compound [1]: 0.88
survival rate ([2]; 1 μM): 92 ± 1.3%
survival rate ([2]; 10 μM): 94 ± 1.8%
ERP value, mitoxantrone + compound [3]: 1.01
ERP = IC50(drug)MDR/IC50(drug+4)MDR [3]: 1.01
ERP value, methotrexate + compound [4]: 1.28
most synergistic area score (SW620C cells): 6.66
synergy score (SW620C cells): –3.14
ERP value, cisplatin + compound [5]: 0.70
survival rate (MRC-5 fibroblasts): 102 ± 6%
Surviwal rate of MRC-5 at 10 microM (MRC-5 fibroblasts): 102_6
survival rate ([6]; 1 μM): 96 ± 4.8%
survival rate ([6]; 10 μM): 95 ± 4.0%
